These results are taken from US11905244B2, “Chemical modulators of store-operated calcium channels and their therapeutic applications” (The Texas A&M University System, priority 2017, dated 2024).

In one test the target is CRAC channel (Homo sapiens (Human), UniProt Q96D31). The test is described as follows: GFP-NFAT translocation-based high-content screening (TG-stimulated HeLa cells stably expressing GFP-NFAT). The settings on record: for Inhibitory activity on CRAC channel in primary screening (NFAT nucleus-to-cytosol ratio): 200 μM compound; for IC50: Table 2, unit inferred, read-out: IC50 of the compounds (inhibitory activity on CRAC channel). It counts as cell-based. The source says: It is known that thapsigargin (TG) can induce the CRAC channel to open resulting in the calcium influx. The elevation of calcium in cytoplasm can activate the Ca^2+-calcineurin-NFAT pathway followed by NFAT translocation from the cytoplasm to the nucleus to regulate gene transcription. Therefore, the inventors built a GFP-NFAT translocation-based high-content screening method to evaluate the activity of compounds on CRAC channel. Briefly, a HeLa cell line stably expressing GFP-NFAT was established and used, and the images after chemical stimulation in the presence of TG were acquired using an IN Cell Analyzer 6000 confocal laser imaging system, and then the GFP fluorescent intensity ratio between cytoplasm and nucleus was analyzed to reflect the inhibitory activity of compound on CRAC channel.
Briefly, GFP-NFAT stable cells were cultured in Dulbecco's modified eagle's medium (DMEM) supplemented with 10% FBS in 5% carbon dioxide at 37° C. When it reached 90% confluency, a cell suspension with a concentration of […] was prepared, and an amount of 2000 cells per well (25 μL/well) was seeded in 384 well plate, putting it at the room temperature for 1 h to make sure the cells distribute evenly, then the cells were incubated overnight. First, primary screening of the selected compounds was conducted. A series of compound solutions with a concentration of 200 μM in MEDM medium were prepared in a 96 well plate and then added to a 384 well plate using a Beckman Coulter automatic drug adding system, in 4 duplicates, and incubated for 30 min at 37° C. SKF was selected as the positive control. Then, 1 μM TG and 1 mM Ca^2+ were added to 384-well plate using Beckman Coulter automatic drug adding system and incubated for 20 min. Subsequently, 384 well plate was gently washed with PBS twice, and the cells were fixed with 4% PFA (25 μl per well) for 10˜15 mins at room temperature, then washed with PBS gently, added 0.5% Triton X-100 (25 μL per well), and incubated for 5 mins aFt room temperature, stained with DAPI (1 μg/mL) for 5˜10 mins at room temperature, washed with PBS and added 30 μL PBS per well to image on confocal laser imaging system (objective lens: 10×, FITC and UV). Using Pipeline Plot software (NAFT translocation protocol), the intensity of green fluorescence was analyzed in nucleus and cytosol, calculate the ratio of nucleus:cytosol, normalize TG stimulate NFAT translocation as 1 and no TG adding as 0. Finally, the data was analyzed using GraphPad Prism 5 software.

In test [1] the test system is MDA-MB-231 breast cancer cells. The test is described as follows: Migration assay (wound healing assay). It counts as cell-based. Conditions: MDA-MB-231, wound healing assay. The method, then:
The effect of compounds on inhibiting migration was evaluated using wound healing assay. Briefly, cells were seeded in a six well-plate, and a wound was generated by scratching the cell monolayer with a 200 μL pipette tip. Then, cells were continued to be cultured in the presence or absence of compounds, and the photographic recording was performed at 0 h, 24 h, and 48 h respectively. The number of the migrated cells was calculated with ImageJ software.

Molecules are shown by their SMILES.

Sequence of CRAC channel (Q96D31 whole entry): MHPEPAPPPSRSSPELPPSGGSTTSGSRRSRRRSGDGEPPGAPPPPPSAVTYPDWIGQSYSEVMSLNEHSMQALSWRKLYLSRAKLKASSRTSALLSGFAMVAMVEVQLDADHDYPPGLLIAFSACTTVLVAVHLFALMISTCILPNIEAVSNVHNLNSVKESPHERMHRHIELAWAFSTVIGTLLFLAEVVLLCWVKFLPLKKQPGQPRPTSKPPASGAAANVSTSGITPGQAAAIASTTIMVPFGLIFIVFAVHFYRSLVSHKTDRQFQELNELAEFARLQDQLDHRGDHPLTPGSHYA

On to `CN/C(=N/c1cc(Cl)ccc1Cl)SC1CC(=O)N(c2ccc(C(=O)OC)cc2)C1=O` (centres unmarked) [Compound 65], for which, on CRAC channel, the “Inhibitory activity on CRAC channel in primary screening (NFAT nucleus-to-cytosol ratio)” value is on record as “good inhibition” and the IC50 came to 30.6 µM. Moreover, the Cell migration entry in test [1] is reported as “greatly inhibit”.

`CCN/C(=N/c1ccc2c(c1)OCO2)SC1CC(=O)N(c2ccc(C(=O)OC)cc2)C1=O` (centres unmarked) [Compound 66]: on CRAC channel, the “Inhibitory activity on CRAC channel in primary screening (NFAT nucleus-to-cytosol ratio)” value was “good inhibition” and the IC50 turned out to be 10.5 µM. Besides, the Cell migration entry in test [1] was “greatly inhibit”. On to `CCN/C(=N/c1cccc(F)c1)SC1CC(=O)N(c2ccc(C(=O)O)cc2)C1=O` (centres unmarked) [Compound 73], for which, at CRAC channel, the half-inhibitory concentration (IC50) is greater than 200 µM. Still for that read-out and setting: the result for `COc1ccc(CN/C(=N/c2ccc(Cl)cc2)SC2CC(=O)N(c3ccc(C(=O)O)cc3)C2=O)cc1` (centres unmarked) [Compound 74] reads greater than 200 µM; that for `CN/C(=N/c1ccccc1)SC1CC(=O)N(c2ccc(C(=O)OC)cc2)C1=O` (centres unmarked) [Compound 75], greater than 200 µM. The same measure, in the same setting: the result for `CCN/C(=N\c1ccccc1)SC1CC(=O)N(c2ccc(C(=O)OC)cc2)C1=O` (centres unmarked) [Compound 76] reads greater than 200 µM; that for `CCCN/C(=N\c1ccccc1)SC1CC(=O)N(c2ccc(C(=O)OC)cc2)C1=O` (centres unmarked) [Compound 77], greater than 200 µM. Still for that read-out and setting: as for `CCCCN/C(=N\c1ccccc1)SC1CC(=O)N(c2ccc(C(=O)OC)cc2)C1=O` (centres unmarked) [Compound 78], the figure is greater than 200 µM; as for `COC(=O)c1ccc(N2C(=O)CC(S/C(=N/c3ccccc3)NC(C)C)C2=O)cc1` (centres unmarked) [Compound 79], 11.7 µM; as for `COC(=O)c1ccc(N2C(=O)CC(S/C(=N/c3ccccc3)NC3CC3)C2=O)cc1` (centres unmarked) [Compound 80], greater than 200 µM. For the molecule `COC(=O)c1ccc(N2C(=O)CC(S/C(=N/c3ccccc3)NC(C)(C)C)C2=O)cc1` (centres unmarked) [Compound 81], on CRAC channel, the IC50 is greater than 200 µM. Still for that read-out and setting: the result for `CCOC(=O)c1ccc(N2C(=O)CC(S/C(=N/c3ccccc3)NC)C2=O)cc1` (centres unmarked) [Compound 82] reads 22.4 µM; that for `CCN/C(=N\c1ccccc1)SC1CC(=O)N(c2ccc(C(=O)OCC)cc2)C1=O` (centres unmarked) [Compound 83], greater than 200 µM. As to `CCCN/C(=N\c1ccccc1)SC1CC(=O)N(c2ccc(C(=O)OCC)cc2)C1=O` (centres unmarked) [Compound 84], the IC50 at CRAC channel was greater than 200 µM. The same measure, in the same setting: as for `CCCCN/C(=N\c1ccccc1)SC1CC(=O)N(c2ccc(C(=O)OCC)cc2)C1=O` (centres unmarked) [Compound 85], the figure is greater than 200 µM; as for `CCOC(=O)c1ccc(N2C(=O)CC(S/C(=N/c3ccccc3)NC(C)C)C2=O)cc1` (centres unmarked) [Compound 86], 6.34 µM. On the same count and under the same terms, the result for `CCOC(=O)c1ccc(N2C(=O)CC(S/C(=N/c3ccccc3)NC(C)(C)C)C2=O)cc1` (centres unmarked) [Compound 88] reads greater than 200 µM; that for `CNC(=O)c1ccc(N2C(=O)CC(S/C(=N/c3ccccc3)NC)C2=O)cc1` (centres unmarked) [Compound 89], greater than 200 µM; that for `CCN/C(=N\c1ccccc1)SC1CC(=O)N(c2ccc(C(=O)NC)cc2)C1=O` (centres unmarked) [Compound 90], greater than 200 µM. Same read-out and setting: the result for `CCCN/C(=N\c1ccccc1)SC1CC(=O)N(c2ccc(C(=O)NC)cc2)C1=O` (centres unmarked) [Compound 91] reads greater than 200 µM. In the case of `CCCCN/C(=N\c1ccccc1)SC1CC(=O)N(c2ccc(C(=O)NC)cc2)C1=O` (centres unmarked) [Compound 92], the IC50 on CRAC channel is greater than 200 µM. Same read-out and setting: the result for `CNC(=O)c1ccc(N2C(=O)CC(S/C(=N/c3ccccc3)NC(C)C)C2=O)cc1` (centres unmarked) [Compound 93] reads greater than 200 µM; that for `CNC(=O)c1ccc(N2C(=O)CC(S/C(=N/c3ccccc3)NC3CC3)C2=O)cc1` (centres unmarked) [Compound 94], greater than 200 µM; that for `CNC(=O)c1ccc(N2C(=O)CC(S/C(=N/c3ccccc3)NC(C)(C)C)C2=O)cc1` (centres unmarked) [Compound 95], greater than 200 µM. Still for that read-out and setting: the result for `NS(=O)(=O)c1ccc(CCN/C(=N\c2ccccc2)SC2CC(=O)N(c3ccccc3)C2=O)cc1` (centres unmarked) [Compound 96] reads 10.9 µM; that for `NS(=O)(=O)c1ccc(CCNC(=S)Nc2cccnc2)cc1` [Compound 97], greater than 200 µM. Same read-out and setting: as for `COC(=O)c1ccc(N2C(=O)CC(S/C(=N/c3cc(OC)ccc3OC)NCCc3ccc(S(N)(=O)=O)cc3)C2=O)cc1` (centres unmarked) [Compound 98], the figure is 21.2 µM; as for `CNC(=O)c1ccc(N2C(=O)CC(S/C(=N/c3ccccc3)NCCc3ccc(S(N)(=O)=O)cc3)C2=O)cc1` (centres unmarked) [Compound 99], 18.2 µM; as for `COC(=O)c1ccc(N2C(=O)CC(S/C(=N/c3ccc(OC)cc3)NCCc3ccc(S(N)(=O)=O)cc3)C2=O)cc1` (centres unmarked) [Compound 100], 14.8 µM.

In the case of `COC(=O)c1ccc(N2C(=O)CC(S/C(=N/c3cccc(OC)c3)NCCc3ccc(S(N)(=O)=O)cc3)C2=O)cc1` (centres unmarked) [Compound 101], the IC50 on CRAC channel amounted to 11.2 µM. Turning to `COC(=O)c1ccc(N2C(=O)CC(S/C(=N/c3ccc(C)cc3)NCCc3ccc(S(N)(=O)=O)cc3)C2=O)cc1` (centres unmarked) [Compound 102], the IC50 at CRAC channel was 9.2 µM. On to `CCOC(=O)c1ccc(N2C(=O)CC(S/C(=N/c3ccccc3)NCCc3ccc(S(N)(=O)=O)cc3)C2=O)cc1` (centres unmarked) [Compound 103], for which the IC50 at CRAC channel worked out at 15.8 µM. On the same count and under the same terms, the result for `NS(=O)(=O)c1ccc(CCNC(=S)Nc2cccc3ccccc23)cc1` [Compound 104] reads greater than 200 µM; that for `COc1ccc(N2C(=O)CC(S/C(=N/c3ccc(C)cc3)NCCc3ccc(S(N)(=O)=O)cc3)C2=O)cc1` (centres unmarked) [Compound 105], greater than 200 µM. As to `COc1ccc(N2C(=O)CC(S/C(=N/c3ccccc3)NCCc3ccc(S(N)(=O)=O)cc3)C2=O)cc1` (centres unmarked) [Compound 106], the IC50 on CRAC channel worked out at 5.01 µM.

With `CCOC(=O)c1ccc(N2C(=O)CC(S/C(=N/c3ccc(OC)cc3)NCCc3ccc(S(N)(=O)=O)cc3)C2=O)cc1` (centres unmarked) [Compound 107], the IC50 on CRAC channel was greater than 200 µM. On to `COc1ccc(/N=C(\NCCc2ccc(S(N)(=O)=O)cc2)SC2CC(=O)N(c3ccc(OC)cc3)C2=O)cc1` (centres unmarked) [Compound 108], for which the IC50 on CRAC channel was greater than 200 µM. Consider `COc1ccc(N2C(=O)CC(S/C(=N/c3cc(OC)ccc3OC)NCCc3ccc(S(N)(=O)=O)cc3)C2=O)cc1` (centres unmarked) [Compound 109], for which the IC50 at CRAC channel is greater than 200 µM.

For the molecule `CCOC(=O)c1ccc(N2C(=O)CC(S/C(=N/c3cc(OC)ccc3OC)NCCc3ccc(S(N)(=O)=O)cc3)C2=O)cc1` (centres unmarked) [Compound 110], on CRAC channel, the IC50 was greater than 200 µM. For `COc1ccc(/N=C(\NCCc2ccc(S(N)(=O)=O)cc2)SC2CC(=O)N(c3ccccc3)C2=O)cc1` (centres unmarked) [Compound 111], the IC50 on CRAC channel came to 1.6 µM. `COc1ccc(OC)c(/N=C(\NCCc2ccc(S(N)(=O)=O)cc2)SC2CC(=O)N(c3ccccc3)C2=O)c1` (centres unmarked) [Compound 112]: the IC50 on CRAC channel worked out at 0.2 µM.

`Cc1ccc(/N=C(\NCCc2ccc(S(N)(=O)=O)cc2)SC2CC(=O)N(c3ccccc3)C2=O)cc1` (centres unmarked) [Compound 113]: the IC50 on CRAC channel stood at 5.83 µM. The same measure, in the same setting: as for `COc1ccc(/N=C(\NCCc2ccc(S(N)(=O)=O)cc2)SC2CC(=O)N(c3ccc(C)cc3)C2=O)cc1` (centres unmarked) [Compound 114], the figure is greater than 200 µM; as for `Cc1ccc(/N=C(\NCCc2ccc(S(N)(=O)=O)cc2)SC2CC(=O)N(c3ccc(C)cc3)C2=O)cc1` (centres unmarked) [Compound 115], 5.84 µM. On to `CCOC(=O)c1ccc(N2C(=O)CC(S/C(=N/c3ccc(C)cc3)NCCc3ccc(S(N)(=O)=O)cc3)C2=O)cc1` (centres unmarked) [Compound 116], for which, on CRAC channel, the IC50 was greater than 200 µM. For the molecule `CCOC(=O)c1ccc(N2C(=O)CC(Sc3nc4ccccc4n3CCc3ccc(S(N)(=O)=O)cc3)C2=O)cc1` (centres unmarked) [Compound 117], the IC50 on CRAC channel is greater than 200 µM.

For `COc1ccc(N2C(=O)CC(Sc3nc4ccccc4n3CCc3ccc(S(N)(=O)=O)cc3)C2=O)cc1` (centres unmarked) [Compound 118], the IC50 on CRAC channel was greater than 200 µM.

`Cc1ccc(N2C(=O)CC(Sc3nc4ccccc4n3CCc3ccc(S(N)(=O)=O)cc3)C2=O)cc1` (centres unmarked) [Compound 119]: the IC50 at CRAC channel is greater than 200 µM.

Regarding `COc1ccc(N2C(=O)CC(Br)C2=O)cc1` (centres unmarked) [Compound 120], the IC50 on CRAC channel was greater than 200 µM.
